Assay results taken from patent publication US11453671B2, “Pyrazolopyrimidine inhibitors of JAK kinases and uses thereof” (Genentech, Inc., priority 2020, dated 2022).
Where two headings read alike, the source gives them in different places.

How the values were obtained:
[1] = Mouse lung tissue binding (equilibrium dialysis, RED); format: in vitro ADME; settings: mouse lung tissue binding, % bound (Table 3)
Experimental: Mouse lung tissue binding. A high bound fraction or percentage of JAK1/JAK2 inhibitors to lung tissue may be undesirable since it can reduce the amount of free drug available to inhibit JAK1 or JAK2.
(a) Tissue binding experiments were performed in triplicate (n=3) using a Single-Use RED Plate by following the standard protocol. Initially, individual drugs were spiked to tissue homogenates (pH 7.4) to achieve a final concentration of 1 μM, and then 300 μL of drug-tissue homogenate mixtures were transferred to the donor wells of the RED plate which was pre-loaded with 500 μL phosphate buffer saline (133 mM) on the receiver wells. The RED plate was sealed with a gas permeable membrane and placed in a shaking incubator (450 rpm, VWR Symphony™) for 6 hr at 37° C. with 5% CO2. At the end of incubation, aliquots of 30 μL samples were taken out of the RED device and matrix equalized with an equal volume of tissue homogenates or buffer, and resulting samples were then immediately quenched with ice cold acetonitrile (sample:acetonitrile 1:4) containing either propranolol or labetalol as an internal standard. After shaking for 15 min at 500 rpm on a Thermo Scientific Compact Digital MicroPlate Shaker, all samples were then subjected to centrifugation at 3700 rpm for 15 min (Beckman Coulter Allegra X 12R) to remove plasma protein. Subsequently, supernatants were collected and then diluted with an equal volume of water prior to LC-MS/MS analysis.
(b) In an alternate procedure, the extent of lung tissue binding of test compound to mouse lung homogenate may also be determined by equilibrium dialysis using Pierce RED (rapid equilibrium dialysis) devices (Fisher Scientific 89811 & 89809). A 10 mM solution of compound in DMSO was prepared and diluted to 1 mM with DMSO. An aliquot of this 1 mM (4 μL) was added into lung homogenate (dilution factor of 1:9, lung tissue:potassium phosphate buffer (0.05 M, pH 7.4)) to give a final compound incubation concentration of 5 μM with solvent accounting for 0.5% (v/v) of the final incubation volume.
For each assay, the percentage lung tissue bound was determined in triplicate. Lung homogenate (200 μL) was loaded into one side of a RED device insert, in triplicate, and 350 μL of potassium phosphate buffer was loaded into the other side. The RED devices were sealed and incubated for 4 hours at ca. 37° C. on an orbital shaker (˜150 rpm).
Following incubation, an aliquot of lung homogenate (8 μL) and an aliquot of dialysate (72 μL) were matrix matched (lung homogenate with 72 μL phosphate buffer, dialysate with 8 μL lung homogenate) ahead of analysis. Protein was precipitated from the samples with the addition of 160 μL of acetonitrile containing internal standard. The same matrix matching and protein precipitation procedure was performed on lung homogenate aliquots sampled at the start of the experiment (t=0 min samples), for the assessment of the mass balance. The quenched samples were centrifuged (4000 rpm, 30 min, 4° C.) and the resultant supernatant diluted with water (3:1 (v/v), supernatant: water) and the samples analysed for parent compound by liquid chromatography mass spectrometry assay.
The unbound fraction (fu) in lung homogenate was determined from the ratio of the dialysate to homogenate peak area, corrected to take into account the lung homogenate dilution (D) to enable an estimate of whole lung tissue binding using the following equations: Undiluted fu=(1/D)/[((1/Apparent fu)−1)+(1/D)] Corrected fraction bound (%)=(1-undiluted fu)*100

[2] = Cell cytotoxicity assay A549 (CellTiter-Glo, 72 hours); format: cell-based; settings: human, A549 cells, read-out: Cytotox A549 EC50
Experimental: A549 (ATCC® CCL-185™), Jurkat clone E6-1 (ATCC® TIB-152™) and HEK-293T (ATCC® CRL-1573™) cells maintained at a sub-confluent density in T175 flasks were used. Cells in exponential growth phase were plated (450 cells in 45 μL of medium) in Greiner 384-well black/clear tissue culture treated plates (Greiner Catalog No. 781091). After dispensing cells, plates were allowed to equilibrate at room temperature for 30 minutes, after which time the cell plates were placed overnight in a 37° C. CO2 and humidity-controlled incubator. The following day, cells were treated with test agent diluted in 100% DMSO (0.5% final DMSO concentration on cells) with a 10-point titration and a top concentration of 50 μM. Cells and compounds were then incubated for 72 hours in a 37° C. CO2 and humidity-controlled incubator, after which time cell viability was measured by adding CellTiter-Glo® (Promega G7572) reagent to all wells. Plates were incubated at room temperature for 20 minutes and then the well luminescence was read on an EnVision plate reader (Perkin Elmer Life Sciences).

[3] = target: Recombinant human JAK2 kinase domain protein (Residues 812-1132) (Homo sapiens, UniProt O60674); experiment: JAK2 biochemical assay (microfluidic mobility shift, peptide phosphorylation); settings: Enzyme JAK2 Ki (nM), 25 μM ATP, 0.2 nM total JAK2
[4] = Table 3, 72 hours, top concentration of 50 μM

Recombinant human JAK2 kinase domain protein (Residues 812-1132), sequence (O60674 812-1132): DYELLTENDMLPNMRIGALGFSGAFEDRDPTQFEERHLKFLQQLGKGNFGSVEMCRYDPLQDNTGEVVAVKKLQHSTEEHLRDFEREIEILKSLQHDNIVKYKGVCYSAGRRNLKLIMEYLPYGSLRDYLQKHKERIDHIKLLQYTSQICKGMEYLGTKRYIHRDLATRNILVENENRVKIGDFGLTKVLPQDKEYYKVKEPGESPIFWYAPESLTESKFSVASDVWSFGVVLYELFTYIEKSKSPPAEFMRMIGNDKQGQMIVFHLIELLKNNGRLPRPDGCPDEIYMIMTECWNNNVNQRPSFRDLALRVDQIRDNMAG

Structure (SMILES) | Mouse LTB % [1] | EC50 at 72 h [2, 4] | Ki [3] | EC50 at 72 h ([2]; Table 4, methyl-desmethyl analog pairs)
Cn1cc(NC(=O)c2cnn3cccnc23)c(-c2cc(S(=O)(=O)c3cn[nH]c3)ccc2OC(F)F)n1 [Example 41, N-[3-[2-(difluoromethoxy)-5-(1H-pyrazol-4-ylsulfonyl)phenyl]-1-methyl-pyrazol-4-yl]pyrazolo[1,5-a]pyrimidine-3-carboxamide] | 91.2% | ≥ 50000 nM | 0.1 nM | –
CN(C)CCS(=O)(=O)c1ccc(OC(F)F)c(-c2nn(C)cc2NC(=O)c2cnn3cccnc23)c1 [Example 7, N-[3-[2-(difluoromethoxy)-5-[2-(dimethylamino)ethylsulfonyl]phenyl]-1-methyl-pyrazol-4-yl]pyrazolo[1,5-a]pyrimidine-3-carboxamide] | 78.8% | 4100 nM | 0.49 nM | –
Cn1cc(NC(=O)c2cnn3cccnc23)c(-c2cc(S(=O)(=O)CCCO)ccc2OC(F)F)n1 [Example 63, N-[3-[2-(difluoromethoxy)-5-(3-hydroxypropylsulfonyl)phenyl]-1-methyl-pyrazol-4-yl]pyrazolo[1,5-a]pyrimidine-3-carboxamide] | 80.5% | ≥ 50000 nM | 0.28 nM | –
Cn1cc(NC(=O)c2cnn3cccnc23)c(-c2cc(S(=O)(=O)c3ccn(C)c(=O)c3)ccc2OC(F)F)n1 [Example 44, N-[3-[2-(difluoromethoxy)-5-[(1-methyl-2-oxo-4-pyridyl)sulfonyl]phenyl]-1-methyl-pyrazol-4-yl]pyrazolo[1,5-a]pyrimidine-3-carboxamide] | 86.5% | 24000 nM | 0.34 nM | –
C[C@H](O)CS(=O)(=O)c1ccc(OC(F)F)c(-c2nn(C)cc2NC(=O)c2cnn3cccnc23)c1 (stereo in doubt) [Example 15, N-[3-[2-(difluoromethoxy)-5-[rac-(2S)-2-hydroxypropyl]sulfonyl-phenyl]-1-methyl-pyrazol-4-yl]pyrazolo[1,5-a]pyrimidine-3-carboxamide] | 85.7% | 25000 nM | 0.16 nM | –
Cn1cc(NC(=O)c2cnn3cccnc23)c(-c2cc(S(=O)(=O)C3CC3)ccc2OC(F)F)n1 [Example 22, N-[3-[5-cyclopropylsulfonyl-2-(difluoromethoxy)phenyl]-1-methyl-pyrazol-4-yl]pyrazolo[1,5-a]pyrimidine-3-carboxamide] | 88.7% | ≥ 50000 nM | 0.19 nM | –
N#CCn1cc(NC(=O)c2cnn3cccnc23)c(-c2cc(S(=O)(=O)C3CC3)ccc2OC(F)F)n1 [Example 45, N-[1-(cyanomethyl)-3-[5-cyclopropylsulfonyl-2-(difluoromethoxy)phenyl]pyrazol-4-yl]pyrazolo[1,5-a]pyrimidine-3-carboxamide] | 87.9% | ≥ 50000 nM | 0.35 nM | –
CN1CCCC1CCn1cc(S(=O)(=O)c2ccc(OC(F)F)c(-c3nn(C)cc3NC(=O)c3cnn4cccnc34)c2)cn1 (stereo in doubt) [Example 56, N-[3-[2-(difluoromethoxy)-5-[1-[2-[(2R)-1-methylpyrrolidin-2-yl]ethyl]pyrazol-4-yl]sulfonyl-phenyl]-1-methyl-pyrazol-4-yl]pyrazolo[1,5-a]pyrimidine-3-carboxamide] | 91.4% | ≥ 50000 nM | 0.76 nM | –
Cn1cc(NC(=O)c2cnn3cccnc23)c(-c2cc(S(=O)(=O)C3CCC3)ccc2OC(F)F)n1 [Example 2, N-[3-[5-cyclobutylsulfonyl-2-(difluoromethoxy)phenyl]-1-methyl-pyrazol-4-yl]pyrazolo[1,5-a]pyrimidine-3-carboxamide] | 88.1% | 25500 nM | 0.2 nM | –
COc1cccc(S(=O)(=O)c2ccc(OC(F)F)c(-c3nn(C)cc3NC(=O)c3cnn4cccnc34)c2)c1 [Example 12, N-[3-[2-(difluoromethoxy)-5-(3-methoxyphenyl)sulfonyl-phenyl]-1-methyl-pyrazol-4-yl]pyrazolo[1,5-a]pyrimidine-3-carboxamide] | 97.1% | ≥ 50000 nM | 0.14 nM | –
Cn1cc(NC(=O)c2cnn3cccnc23)c(-c2cc(S(C)(=O)=O)ccc2OC(F)F)n1 [Example 17, N-[3-[2-(difluoromethoxy)-5-methylsulfonyl-phenyl]-1-methyl-pyrazol-4-yl]pyrazolo[1,5-a]pyrimidine-3-carboxamide] | 85.8% | 8700 nM | 0.1 nM | 8700 nM
CNS(=O)(=O)c1ccc(OC(F)F)c(-c2nn(C)cc2NC(=O)c2cnn3cccnc23)c1 [Example 26, N-[3-[2-(difluoromethoxy)-5-(methylsulfamoyl)phenyl]-1-methyl-pyrazol-4-yl]pyrazolo[1,5-a]pyrimidine-3-carboxamide] | 86.9% | 11000 nM | 0.097 nM | –
